≈ marks a conversion by molar mass, not a printed value. Like-named read-outs stand apart in the source and are kept apart here.
Legend:
Jack Bean Urease [1] = molecular target: T1, Jack Bean Urease (Canavalia ensiformis, UniProt P07374); assay: biochemical
T1 construct: purchased Sigma Aldrich
Experimental: (§1) As structure of urease from different sources has common structural features therefore urease inhibition studies were carried out on jack bean urease. Inhibition studies were carried out by indophenol technique described by Weatherburn in which measurement of concentration of ammonia released during the reaction between reagents and compounds were done.
Urease enzyme inhibition investigation studies for all synthesized compounds were done by the method developed by Weatherburn (1967) named Indophenol against Jack Bean Urease. Briefly, incubation of solution of Jack bean protein 25 μL was done at temperature of 30 °C for a period of 15 min with 55 μL of buffers solution having 100 mM urea and 5 μL of test solution in 96-well plates. 45 μL phenol solution composing phenol 1% w/v and solution of sodium nitroprusside 0.005% w/v and alkali reagent 70 μL composed of sodium hydroxide 0.5% w/v and active sodium hypochloride solution 0.1% were mixed to every well. The measurement of increase in absorption at 625 nm was done after 50 min by help of a microplate reader (Molecular Device, USA). Readings were recorded in triplicate set in a final volume of 200 μL using thiourea as standard. Each assay was performed at pH 8.2 (0.01 M K2HPO4.3H2O, 0.01 M […] and 1 mM EDTA). Calculation of Inhibition in percentage of synthesized derivatives was done by the formula given as: I\%=AControl-ASample/AControl×100 where, Acontrol is control absorbance; Asample is test absorbance.

[2] = DPPH assay for antioxidant activity; details: DPPH free radical scavenging, mean SEM
Experimental: as §1
Antioxidant nature of the synthesized derivatives was measured by the help of DPPH method. According to this method synthesized compounds were allowed to react for 0.5 h at 37 °C with stable free radical, 1, 1-diphenyl-2-picrylhydrazyl radical (DPPH). The DPPH was taken in a concentration of 300 µM. Decrease in value of absorption at 515 nm was measured after the period of incubation using a microplate reader using ascorbic acid as a standard. Molecule capable of donating proton to DPPH and cause its reduction acts as an antioxidant. Following reduction deep violet coloured DPPH solution changes to yellow depending upon the nature of antioxidant compound, which brings a measurable decrease in value of absorption at 517 nm. The proton or electron donating capacity of the derivative was estimated from the fading of deep purple colored methanolic solution of 1, 1-diphenylpicrylhydrazyl (DPPH). Incubation of mixture was done at room temperature for 30 min and measurements were done at 517 nm against blank. Calculation of percentage inhibition was done by following formula: I\%=AControl-ASample/AControl×100 where, Acontrol is control absorbance; Asample is test absorbance.

[3] = test system: H. pylori bacterium (DSM 4867); assay: Anti-H. pylori activity, well diffusion technique; assay type: cell-based, Helicobacter pylori; details: H. pylori DSM 4867, 2500 µg per well, 24–48 h
Experimental: (§2) Derivatives C4a, C4b and C4d which were found best in urease inhibition and antioxidant activity as well as in terms of docking score were tested further against antibacterial efficiency against Helicobacter pylori DSM 4867 using AHA as a standard and DMSO as control. […] In-vitro results concluded that compound C4a bearing nitro and chloro group at 2nd and 4th position indicated excellent antibacterial action against H. Pylori probably by interacting with the target protein efficiently and inhibited the growth of pathogenic bacteria.
(§3) Since H. Pylori is not acidophilic in nature therefore it requires urease, which produced ammonia by hydrolyzing urea present in stomach, for its survival in acidic gastric medium. Because of virulence nature of urease researchers decided to target its inhibition for anti-H. Pylori drugs. Novel synthesized derivatives were investigated against H. pylori bacterium (DSM 4867, AHA as standard) for their antibacterial activity by using Well diffusion technique. The stock solution of compounds in DMSO (1000 μg/mL) were prepared. Cell suspension was prepared from culture grown on BHI broth. The cell suspensions of all the cultures were adjusted to 1–2 × 10^5 cells/mL. Helicobacter pylori (100 µL) was inoculated by spread plate technique on agar plates (90 mm). […] MIC was determined against Helicobacter pylori by micro broth dilution technique as per NCCLS method.

[4] = test system: Helicobacter pylori DSM 4867; assay: MIC against Helicobacter pylori by micro broth dilution technique; assay type: cell-based; details: H. pylori DSM 4867, micro broth dilution
Experimental: as §2, §3

Jack Bean Urease [5] = molecular target: T1, Jack Bean Urease; assay: Enzyme kinetics, Lineweaver-Burk plot; assay type: biochemical; details: varying urea, phosphate buffer, 1 mM EDTA, pH 8.2
Experimental: Study of inhibitory effect of chlorogenic derivatives on jack bean urease was performed to check the inhibitory potential, kinetics studies and mechanism of inhibition in phosphate buffer and 1 mM EDTA at pH 8.2. […] Competitive inhibition infers that compound C4a will probably compete for binding at the site of substrate in enzyme active site pocket.
(substrate concentration) against 1/[V] velocity. To examine the mode of inhibition compound C4a was solubilized in DMSO and further dilutions were prepared accordingly. Plot was prepared by using varying concentration of substrate (urea) in with varying concentration of inhibitor C4a. Inhibitory constant values (Ki) were determined as the interaction on the X-axis of the plots of the slope against different concentration of derivatives C4a. […] All experiments were performed in triplicate and kinetic study for interaction of enzyme with inhibitor was computed with Graphpad prism 7.0 software.

T1 sequence (P07374 whole entry, looked up): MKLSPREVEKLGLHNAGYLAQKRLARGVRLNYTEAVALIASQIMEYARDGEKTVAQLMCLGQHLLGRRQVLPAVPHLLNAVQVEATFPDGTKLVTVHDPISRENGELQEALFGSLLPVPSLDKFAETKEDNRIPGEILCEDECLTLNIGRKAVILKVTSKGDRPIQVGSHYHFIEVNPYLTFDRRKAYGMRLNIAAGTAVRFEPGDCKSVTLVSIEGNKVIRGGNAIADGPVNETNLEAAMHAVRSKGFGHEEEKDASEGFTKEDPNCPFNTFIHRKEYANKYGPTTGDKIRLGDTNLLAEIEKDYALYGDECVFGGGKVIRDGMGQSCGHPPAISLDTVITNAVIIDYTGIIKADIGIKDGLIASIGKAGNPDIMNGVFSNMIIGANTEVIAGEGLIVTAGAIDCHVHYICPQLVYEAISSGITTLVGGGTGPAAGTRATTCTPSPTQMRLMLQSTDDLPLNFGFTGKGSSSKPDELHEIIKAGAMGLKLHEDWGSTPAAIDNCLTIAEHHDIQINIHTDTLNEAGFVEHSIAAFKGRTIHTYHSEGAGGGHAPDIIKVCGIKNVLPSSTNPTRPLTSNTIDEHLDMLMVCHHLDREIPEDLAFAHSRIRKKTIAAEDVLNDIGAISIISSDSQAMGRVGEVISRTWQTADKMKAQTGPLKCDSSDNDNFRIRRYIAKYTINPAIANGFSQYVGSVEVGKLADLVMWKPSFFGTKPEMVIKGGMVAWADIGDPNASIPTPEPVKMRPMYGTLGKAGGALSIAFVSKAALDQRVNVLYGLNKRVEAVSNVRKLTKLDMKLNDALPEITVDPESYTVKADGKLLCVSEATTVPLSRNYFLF

O=C(/C=C/c1ccc(O)c(O)c1)O[C@@H]1C[C@](O)(C(=O)Nc2ccccc2F)CC(O)C1O (stereo partly drawn) [C4h, (1R, 5S)-5-((2-fluorophenyl)carbamoyl)-2,3,5-trihydroxycyclohexyl (2E)-3-(3,4-dihydroxyphenyl)prop-2-enoate]
IC50 (Jack Bean Urease [1]): 21.24 ± 0.016 µM
IC50 [2]: 7.23 ± 0.008 µM

CC(=O)NO [AHA, acetohydroxamic acid, reference compound]
zone of inhibition [3]: 9.00 ± 0.50 mm
MIC [4]: 1000 µg/mL (≈ 13300 µM)

O=C(/C=C/c1ccc(O)c(O)c1)O[C@@H]1C[C@](O)(C(=O)Nc2cccc([N+](=O)[O-])c2)CC(O)C1O (stereo partly drawn) [C4d, (1R, 5S)-2,3,5-trihydroxy-5-((3-nitrophenyl)carbamoyl)cyclohexyl (2E)-3-(3,4-dihydroxyphenyl)prop-2-enoate]
IC50 (Jack Bean Urease [1]): 13.8 ± 0.041 µM
IC50 [2]: 5.34 ± 0.007 µM

COc1ccc(NC(=O)[C@]2(O)CC(O)C(O)[C@H](OC(=O)/C=C/c3ccc(O)c(O)c3)C2)cc1 (stereo partly drawn) [C4f, (1R, 5S)-2,3,5-trihydroxy-5-((4-methoxyphenyl)carbamoyl)cyclohexyl (2E)-3-(3,4-dihydroxyphenyl)prop-2-enoate]
IC50 (Jack Bean Urease [1]): 21.83 ± 0.009 µM
IC50 [2]: 7.89 ± 0.006 µM

O=C1O[C@H]([C@@H](O)CO)C(O)=C1O [Ascorbic acid, ascorbic acid, reference compound]
IC50 [2]: 8.59 ± 0.004 µM

Cc1ccccc1NC(=O)[C@]1(O)CC(O)C(O)[C@H](OC(=O)/C=C/c2ccc(O)c(O)c2)C1 (stereo partly drawn) [C4g, (1R, 5S)-2,3,5-trihydroxy-5-((2-methylphenyl)carbamoyl)cyclohexyl (2E)-3-(3,4-dihydroxyphenyl)prop-2-enoate]
IC50 (Jack Bean Urease [1]): 21.5 ± 0.032 µM
IC50 [2]: 7.75 ± 0.011 µM

O=C(/C=C/c1ccc(O)c(O)c1)O[C@@H]1C[C@](O)(C(=O)O)C[C@@H](O)[C@H]1O [CHLG, chlorogenic acid, reference compound]
IC50 (Jack Bean Urease [1]): 22.68 ± 0.006 µM

COc1cccc(NC(=O)[C@]2(O)CC(O)C(O)[C@H](OC(=O)/C=C/c3ccc(O)c(O)c3)C2)c1 (stereo partly drawn) [C4e, (1R, 5S)-2,3,5-trihydroxy-5-((3-methoxyphenyl)carbamoyl) cyclohexyl (2E)-3-(3,4-dihydroxyphenyl)prop-2-enoate]
IC50 (Jack Bean Urease [1]): 20.6 ± 0.001 µM
IC50 [2]: 6.85 ± 0.02 µM

O=C(/C=C/c1ccc(O)c(O)c1)O[C@@H]1C[C@](O)(C(=O)Nc2ccc([N+](=O)[O-])cc2Cl)CC(O)C1O (stereo partly drawn) [C4a, (1R, 5S)-5-((2-chloro-4-nitrophenyl)carbamoyl)-2,3,5-trihydroxycyclohexyl (2E)-3-(3,4-dihydroxyphenyl)prop-2-enoate]
IC50 (Jack Bean Urease [1]): 11.01 ± 0.013 µM
IC50 [2]: 5.1 ± 0.018 µM
zone of inhibition [3]: 10.00 ± 0.00 mm
MIC ([4]; Helicobacter pylori, DSM4867, read-out: MIC): 500 µg/mL (≈ 983 µM)
mode of inhibition (Jack Bean Urease [5]): competitive type of Inhibition

NC(N)=S [Thiourea, thiourea, reference compound]
IC50 (Jack Bean Urease [1]; jack bean urease, indophenol method, pH 8.2, mean SEM, read-out: IC50 (µM) urease inhibition): 22.8 ± 0.011 µM

O=C(/C=C/c1ccc(O)c(O)c1)O[C@@H]1C[C@](O)(C(=O)Nc2ccc(Br)cc2)CC(O)C1O (stereo partly drawn) [C4c, (1R, 5S)-5-((4-bromophenyl)carbamoyl)-2,3,5-trihydroxycyclohexyl (2E)-3-(3,4-dihydroxyphenyl)prop-2-enoate]
IC50 (Jack Bean Urease [1]): 22.02 ± 0.027 µM
IC50 [2]: 8.48 ± 0.026 µM

O=C(/C=C/c1ccc(O)c(O)c1)O[C@@H]1C[C@](O)(C(=O)Nc2ccc(Cl)cc2[N+](=O)[O-])CC(O)C1O (stereo partly drawn) [C4b, (1R, 5S)-5-((4-chloro-2-nitrophenyl)carbamoyl)-2,3,5-trihydroxycyclohexyl (2E)-3-(3,4-dihydroxyphenyl)prop-2-enoate]
IC50 (Jack Bean Urease [1]): 15.86 ± 0.004 µM
IC50 [2]: 6.01 ± 0.005 µM
